pIC50: −log10 of the molar value. Where two headings read alike, the source gives them in different places.
Experiments:
[1] = biological target: biotinylated human Gal-3 (hGal-3) (Homo sapiens, UniProt P17931); assay: Competitive binding assay: biotinylated hGal-3 binding to microplate-adsorbed asialofetuin (ASF), spectrophotometric; settings: hGal-3, read-out: IC50 (Gal-3 inhibition)
How it was run: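 Competitive binding of biotinylated hGal-3 to plate-adsorbed asialofetuin was measured with serially diluted compounds over 3 h at 4° C. Bound protein was detected with streptavidin-peroxidase and ABTS substrate by absorbance. IC50 values are means of several measurements.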

human Gal-1 (hGal-1) = human Gal-1 (hGal-1) (Homo sapiens, UniProt P09382); assay: Competitive binding assay: biotinylated hGal-1 binding to microplate-adsorbed asialofetuin (ASF), spectrophotometric; settings: hGal-1 binding to asialofetuin; Table 15; R and S epimers of selected Examples also listed; read-out: IC50 (Galectin-1 inhibition)
How it was run: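 Biotinylated hGal-1 (300-1000 ng/mL) incubated with compound on asialofetuin-coated plates 3 hours at 4 °C, washed, then streptavidin-peroxidase (80 ng/mL) 1 hour at 4 °C. ABTS substrate read spectrophotometrically; IC50 reported as mean of several measurements.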

Sequence of human Gal-1 (hGal-1) (P09382 whole entry): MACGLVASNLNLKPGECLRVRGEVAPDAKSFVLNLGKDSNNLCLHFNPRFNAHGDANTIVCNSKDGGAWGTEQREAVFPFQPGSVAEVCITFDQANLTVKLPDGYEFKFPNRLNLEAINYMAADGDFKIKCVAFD
Sequence of biotinylated human Gal-3 (hGal-3) (P17931 whole entry): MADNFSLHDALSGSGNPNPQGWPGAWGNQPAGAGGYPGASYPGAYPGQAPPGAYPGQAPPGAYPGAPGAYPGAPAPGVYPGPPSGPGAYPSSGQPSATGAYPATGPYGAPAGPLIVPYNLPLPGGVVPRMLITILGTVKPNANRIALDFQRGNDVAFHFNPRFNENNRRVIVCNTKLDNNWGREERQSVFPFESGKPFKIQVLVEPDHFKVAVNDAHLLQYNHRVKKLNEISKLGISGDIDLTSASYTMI

Structure (SMILES) | pIC50 ([1]; Table 12) | pIC50 (human Gal-1 (hGal-1)) | pIC50 ([1]; Table 10) | pIC50 ([1]; Table 8)
CO[C@@H]1[C@@H](n2cc(-c3cc(F)c(F)c(F)c3)nn2)[C@@H](O)[C@@H](CO)O[C@H]1SC(C(=O)NC(C)C)C1(O)CCC(F)(F)CC1 (stereo partly drawn) [Example 2.44.251.I., 2-(4,4-Difluoro-1-hydroxycyclohexyl)-2-(((2S,3R,4S,5R,6R)-5-hydroxy-6-(hydroxymethyl)-3-methoxy-4-(4-(3,4,5-trifluorophenyl)-1H-1,2,3-triazol-1-yl)tetrahydro-2H-pyran-2-yl)thio)-N-isopropylacetamide] | 7.05 | 6.72 |  | 
CO[C@@H]1[C@@H](n2cc(-c3cc(F)c(F)c(F)c3)nn2)[C@@H](O)[C@@H](CO)O[C@H]1SC(C(=O)NCCC(C)(C)C)C1(O)CCC(F)(F)CC1 (stereo partly drawn) [Example 2.44.252.I., 2-(4,4-Difluoro-1-hydroxycyclohexyl)-N-(3,3-dimethylbuty1)-2-(((2S,3R,4S,5R,6R)-5-hydroxy-6-(hydroxymethyl)-3-methoxy-4-(4-(3,4,5-trifluorophenyl)-1H-1,2,3-triazol-1-yl)tetrahydro-2H-pyran-2-yl)thio)acetamide] | 6.49 | 6.08 |  | 
CO[C@@H]1[C@@H](n2cc(-c3cc(F)c(F)c(F)c3)nn2)[C@@H](O)[C@@H](CO)O[C@H]1SC(C(=O)NC1CC(F)(F)C1)C1(O)CCC(F)(F)CC1 (stereo partly drawn) [Example 2.44.253.I., 2-(4,4-Difluoro-1-hydroxycyclohexyl)-N-(3,3-difluorocyclobutyl)-2-(((2S,3R,4S,5R,6R)-5-hydroxy-6-(hydroxymethyl)-3-methoxy-4-(4-(3,4,5-trifluorophenyl)-1H-1,2,3-triazol-1-yl)tetrahydro-2H-pyran-2-yl)thio)acetamide] | 6.80 | 6.17 |  | 
CO[C@@H]1[C@@H](n2cc(-c3cc(F)c(F)c(F)c3)nn2)[C@@H](O)[C@@H](CO)O[C@H]1SC(C(=O)NCC(F)(F)F)C1(O)CCC(F)(F)CC1 (stereo partly drawn) [Example 2.44.254.I., 2-(4,4-Difluoro-1-hydroxycyclohexyl)-2-(((2S,3R,4S,5R,6R)-5-hydroxy-6-(hydroxymethyl)-3-methoxy-4-(4-(3,4,5-trifluorophenyl)-1H-1,2,3-triazol-1-yl)tetrahydro-2H-pyran-2-yl)thio)-N-(2,2,2-trifluoroethyl)acetamide] | 6.89 | 6.52 |  | 
CCN(CC1CC(F)(F)C1)C(=O)C(S[C@@H]1O[C@H](CO)[C@H](O)[C@H](n2cc(-c3cc(F)c(F)c(F)c3)nn2)[C@H]1OC)C1(O)CCC(F)(F)CC1 (stereo partly shown) [Example 2.44.256.I.] |  | 6.89 | 7.30 | 
CCN(C(=O)C(S[C@@H]1O[C@H](CO)[C@H](O)[C@H](n2cc(-c3cc(F)c(F)c(F)c3)nn2)[C@H]1OC)C1(O)CCC(F)(F)CC1)C1CCOCC1 (stereo partly shown) [Example 2.44.257.I.] |  | 6.74 | 7.15 | 
CCN(C)C(=O)[C@H](S[C@@H]1O[C@H](CO)[C@H](O)[C@H](n2cc(-c3cc(F)c(F)c(F)c3)nn2)[C@H]1O)C1(O)CCN(S(C)(=O)=O)CC1 [Example 2.47.203R., (R)-2-(((2S,3R,4S,5R,6R)-3,5-Dihydroxy-6-(hydroxymethyl)-4-(4-(3,4,5-trifluorophenyl)-1H-1,2,3-triazol-1-yl)tetrahydro-2H-pyran-2-yl)thio)-N-ethyl-2-(4-hydroxy-1-(methylsulfonyl)piperidin-4-yl)-N-methylacetamide] |  | 4.47 |  | 5.17
CCN(C)C(=O)C(S[C@@H]1O[C@H](CO)[C@H](O)[C@H](n2cc(-c3cc(F)c(F)c(F)c3)nn2)[C@H]1O)C1(O)CCN(C(=O)NC2CC2)CC1 (stereo partly drawn) [Example 2.49.203., N-Cyclopropyl-4-(1-(((2S,3R,4S,5R,6R)-3,5-dihydroxy-6-(hydroxymethyl)-4-(4-(3,4,5-trifluorophenyl)-1H-1,2,3-triazol-1-yl)tetrahydro-2H-pyran-2-yl)thio)-2-(ethyl(methyl)amino)-2-oxoethyl)-4-hydroxypiperidine-1-carboxamide] |  | 7.15 |  | 7.30
CCN(C)C(=O)[C@H](S[C@@H]1O[C@H](CO)[C@H](O)[C@H](n2cc(-c3cc(F)c(F)c(F)c3)nn2)[C@H]1O)C1(O)CCN(C(=O)NC2CC2)CC1 [Example 2.49.203R., (R)-N-Cyclopropyl-4-(1-(((2S,3R,4S,5R,6R)-3,5-dihydroxy-6-(hydroxymethyl)-4-(4-(3,4,5-trifluorophenyl)-1H-1,2,3-triazol-1-yl)tetrahydro-2H-pyran-2-yl)thio)-2-(ethyl(methyl)amino)-2-oxoethyl)-4-hydroxypiperidine-1-carboxamide] |  | 5.35 |  | 5.58
CCN(C)C(=O)[C@@H](S[C@@H]1O[C@H](CO)[C@H](O)[C@H](n2cc(-c3cc(F)c(F)c(F)c3)nn2)[C@H]1O)C1(O)CCN(C(=O)NC2CC2)CC1 [Example 2.49.203S., (S)-N-Cyclopropyl-4-(1-(((2S,3R,4S,5R,6R)-3,5-dihydroxy-6-(hydroxymethyl)-4-(4-(3,4,5-trifluorophenyl)-1H-1,2,3-triazol-1-yl)tetrahydro-2H-pyran-2-yl)thio)-2-(ethyl(methyl)amino)-2-oxoethyl)-4-hydroxypiperidine-1-carboxamide] |  | 7.22 |  | 7.40
CCN(C)C(=O)[C@H](S[C@@H]1O[C@H](CO)[C@H](O)[C@H](n2cc(-c3cc(F)c(F)c(F)c3)nn2)[C@H]1OC)C1(O)CCN(C(=O)NC2CC2)CC1 [Example 2.49.226R.I., N-Cyclopropyl-4-((R)-2-(ethyl(methyl)amino)-1-(((2S,3R,4S,5R,6R)-5-hydroxy-6-(hydroxymethyl)-3-methoxy-4-(4-(3,4,5-trifluorophenyl)-1H-1,2,3-triazol-1-yl)tetrahydro-2H-pyran-2-yl)thio)-2-oxoethyl)-4-hydroxypiperidine-1-carboxamide] |  | 7.10 |  | 5.76
CCN(C)C(=O)[C@@H](S[C@@H]1O[C@H](CO)[C@H](O)[C@H](n2cc(-c3cc(F)c(F)c(F)c3)nn2)[C@H]1OC)C1(O)CCN(C(=O)NC2CC2)CC1 [Example 2.49.226S.I., N-Cyclopropyl-4-((S)-2-(ethyl(methyl)amino)-1-(((2S,3R,4S,5R,6R)-5-hydroxy-6-(hydroxymethyl)-3-methoxy-4-(4-(3,4,5-trifluorophenyl)-1H-1,2,3-triazol-1-yl)tetrahydro-2H-pyran-2-yl)thio)-2-oxoethyl)-4-hydroxypiperidine-1-carboxamide] |  | 5.77 |  | 7.22
CCN(C)C(=O)C(S[C@@H]1O[C@H](CO)[C@H](O)[C@H](n2cc(-c3cc(F)c(F)c(F)c3)nn2)[C@H]1O)C1(O)CCN(C(=O)OC)CC1 (stereo partly drawn) [Example 2.50.203., Methyl 4-(1-(((2S,3R,4S,5R,6R)-3,5-dihydroxy-6-(hydroxymethyl)-4-(4-(3,4,5-trifluorophenyl)-1H-1,2,3-triazol-1-yl)tetrahydro-2H-pyran-2-yl)thio)-2-(ethyl(methyl)amino)-2-oxoethyl)-4-hydroxypiperidine-1-carboxylate] |  | 7.00 |  | 7.15
CCN(C)C(=O)[C@H](S[C@@H]1O[C@H](CO)[C@H](O)[C@H](n2cc(-c3cc(F)c(F)c(F)c3)nn2)[C@H]1O)C1(O)CCN(C(=O)OC)CC1 [Example 2.50.203R., (R)-Methyl 4-(1-(((2S,3R,4S,5R,6R)-3,5-dihydroxy-6-(hydroxymethyl)-4-(4-(3,4,5-trifluorophenyl)-1H-1,2,3-triazol-1-yl)tetrahydro-2H-pyran-2-yl)thio)-2-(ethyl(methyl)amino)-2-oxoethyl)-4-hydroxypiperidine-1-carboxylate] |  | 4.98 |  | 5.35
CCN(C)C(=O)[C@@H](S[C@@H]1O[C@H](CO)[C@H](O)[C@H](n2cc(-c3cc(F)c(F)c(F)c3)nn2)[C@H]1O)C1(O)CCN(C(=O)OC)CC1 [Example 2.50.203S., (S)-Methyl 4-(1-(((2S,3R,4S,5R,6R)-3,5-dihydroxy-6-(hydroxymethyl)-4-(4-(3,4,5-trifluorophenyl)-1H-1,2,3-triazol-1-yl)tetrahydro-2H-pyran-2-yl)thio)-2-(ethyl(methyl)amino)-2-oxoethyl)-4-hydroxypiperidine-1-carboxylate] |  | 7.22 |  | 7.40
CCN(C)C(=O)C(S[C@@H]1O[C@H](CO)[C@H](O)[C@H](n2cc(-c3cc(F)c(F)c(F)c3)nn2)[C@H]1O)C1(O)CCN(S(=O)(=O)C2CC2)CC1 (stereo partly drawn) [Example 2.51.203., 2-(1-(Cyclopropylsulfonyl)-4-hydroxypiperidin-4-yl)-2-(((2S,3R,4S,5R,6R)-3,5-dihydroxy-6-(hydroxymethyl)-4-(4-(3,4,5-trifluorophenyl)-1H-1,2,3-triazol-1-yl)tetrahydro-2H-pyran-2-yl)thio)-N-ethyl-N-methylacetamide] |  | 7.15 |  | 7.52
CCN(C)C(=O)[C@H](S[C@@H]1O[C@H](CO)[C@H](O)[C@H](n2cc(-c3cc(F)c(F)c(F)c3)nn2)[C@H]1O)C1(O)CCN(S(=O)(=O)C2CC2)CC1 [Example 2.51.203R., (R)-2-(1-(Cyclopropylsulfonyl)-4-hydroxypiperidin-4-yl)-2-(((2S,3R,4S,5R,6R)-3,5-dihydroxy-6-(hydroxymethyl)-4-(4-(3,4,5-trifluorophenyl)-1H-1,2,3-triazol-1-yl)tetrahydro-2H-pyran-2-yl)thio)-N-ethyl-N-methylacetamide] |  | 5.12 |  | 5.30
